From paper doi:10.1101/2023.03.24.534094v2 (biorxiv, 2023) come the findings set out here.

Among the targets are CaMK1g (Homo sapiens, UniProt Q96NX5); BIKE (Homo sapiens, UniProt Q9NSY1); CDKL1 (Homo sapiens, UniProt Q00532); NEK7 (Homo sapiens, UniProt Q8TDX7).
Assay in all cases: biochemical
A further assay deals with T1, AurA (Homo sapiens, UniProt O14965).
T1 sequence (O14965 1-403): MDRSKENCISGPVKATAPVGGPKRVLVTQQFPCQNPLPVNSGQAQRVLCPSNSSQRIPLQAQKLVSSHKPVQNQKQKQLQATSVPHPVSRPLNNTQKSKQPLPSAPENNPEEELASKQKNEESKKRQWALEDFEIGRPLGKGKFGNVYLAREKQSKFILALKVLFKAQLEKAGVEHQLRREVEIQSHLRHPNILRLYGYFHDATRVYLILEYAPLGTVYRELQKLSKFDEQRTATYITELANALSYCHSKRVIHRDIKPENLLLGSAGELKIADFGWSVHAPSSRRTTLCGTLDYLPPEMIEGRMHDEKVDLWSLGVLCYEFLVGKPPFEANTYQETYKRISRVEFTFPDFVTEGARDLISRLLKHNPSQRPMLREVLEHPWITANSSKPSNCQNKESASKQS

Another assay concerns the target T2, MARK4 (Homo sapiens, UniProt Q96L34).
T2 sequence (Q96L34 1-752): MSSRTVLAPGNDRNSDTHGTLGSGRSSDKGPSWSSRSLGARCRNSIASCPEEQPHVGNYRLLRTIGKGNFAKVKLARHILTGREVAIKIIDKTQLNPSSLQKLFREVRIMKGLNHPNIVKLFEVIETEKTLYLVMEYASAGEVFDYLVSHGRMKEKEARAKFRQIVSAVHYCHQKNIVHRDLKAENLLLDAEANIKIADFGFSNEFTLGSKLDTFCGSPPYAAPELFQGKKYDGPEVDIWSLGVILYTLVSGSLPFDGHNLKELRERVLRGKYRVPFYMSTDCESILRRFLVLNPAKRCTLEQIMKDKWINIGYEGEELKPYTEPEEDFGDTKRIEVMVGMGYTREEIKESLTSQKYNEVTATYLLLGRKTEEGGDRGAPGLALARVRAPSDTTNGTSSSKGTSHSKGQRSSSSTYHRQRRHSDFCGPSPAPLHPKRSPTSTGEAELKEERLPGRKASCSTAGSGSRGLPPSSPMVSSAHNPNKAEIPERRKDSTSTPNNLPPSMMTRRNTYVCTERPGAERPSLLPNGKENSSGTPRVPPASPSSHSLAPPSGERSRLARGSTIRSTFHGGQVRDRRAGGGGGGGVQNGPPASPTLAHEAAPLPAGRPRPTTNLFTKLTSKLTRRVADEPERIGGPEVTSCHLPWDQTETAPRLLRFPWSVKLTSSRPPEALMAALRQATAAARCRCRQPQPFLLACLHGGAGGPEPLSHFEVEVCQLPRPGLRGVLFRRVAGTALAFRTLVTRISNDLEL

A further assay deals with T3, MAP3K5 (Homo sapiens, UniProt Q99683).
T3 sequence (Q99683 1-1374): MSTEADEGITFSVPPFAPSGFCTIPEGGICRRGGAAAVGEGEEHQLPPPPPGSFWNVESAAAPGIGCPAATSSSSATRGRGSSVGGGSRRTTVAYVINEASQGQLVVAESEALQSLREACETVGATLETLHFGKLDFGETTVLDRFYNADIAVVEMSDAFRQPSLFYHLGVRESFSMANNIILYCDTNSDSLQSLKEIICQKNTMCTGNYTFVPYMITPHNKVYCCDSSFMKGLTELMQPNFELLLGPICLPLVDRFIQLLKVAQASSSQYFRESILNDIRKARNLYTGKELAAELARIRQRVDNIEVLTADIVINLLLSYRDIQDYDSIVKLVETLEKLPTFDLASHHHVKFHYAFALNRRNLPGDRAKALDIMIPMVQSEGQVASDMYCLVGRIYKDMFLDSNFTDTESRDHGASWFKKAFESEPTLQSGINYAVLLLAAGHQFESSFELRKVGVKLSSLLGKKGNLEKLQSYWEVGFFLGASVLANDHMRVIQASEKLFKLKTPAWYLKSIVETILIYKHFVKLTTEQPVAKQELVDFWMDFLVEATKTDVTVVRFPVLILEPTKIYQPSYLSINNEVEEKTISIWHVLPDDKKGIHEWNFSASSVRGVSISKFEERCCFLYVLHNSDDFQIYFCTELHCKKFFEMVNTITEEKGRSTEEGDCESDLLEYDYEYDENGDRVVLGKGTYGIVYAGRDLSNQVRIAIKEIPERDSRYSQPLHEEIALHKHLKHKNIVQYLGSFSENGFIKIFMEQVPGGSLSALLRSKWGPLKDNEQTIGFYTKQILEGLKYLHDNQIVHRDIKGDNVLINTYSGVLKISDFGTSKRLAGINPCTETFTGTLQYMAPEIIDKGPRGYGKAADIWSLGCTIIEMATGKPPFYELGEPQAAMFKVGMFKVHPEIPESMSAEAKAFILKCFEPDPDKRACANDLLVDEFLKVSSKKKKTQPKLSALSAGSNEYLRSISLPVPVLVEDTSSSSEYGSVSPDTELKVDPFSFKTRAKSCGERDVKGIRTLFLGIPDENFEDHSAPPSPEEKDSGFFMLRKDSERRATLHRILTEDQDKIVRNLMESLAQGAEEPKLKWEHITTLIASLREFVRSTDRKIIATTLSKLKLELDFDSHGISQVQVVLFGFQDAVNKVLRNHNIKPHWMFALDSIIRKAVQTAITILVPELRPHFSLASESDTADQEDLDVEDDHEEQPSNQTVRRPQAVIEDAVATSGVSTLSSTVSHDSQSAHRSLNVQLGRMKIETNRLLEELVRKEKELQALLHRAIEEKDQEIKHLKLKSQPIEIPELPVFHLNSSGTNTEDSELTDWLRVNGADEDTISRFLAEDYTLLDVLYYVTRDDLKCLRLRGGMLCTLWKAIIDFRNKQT

Structures are written as SMILES. Like-named read-outs stand apart in the source and are kept apart here.

NEK7, sequence (Q8TDX7 whole entry): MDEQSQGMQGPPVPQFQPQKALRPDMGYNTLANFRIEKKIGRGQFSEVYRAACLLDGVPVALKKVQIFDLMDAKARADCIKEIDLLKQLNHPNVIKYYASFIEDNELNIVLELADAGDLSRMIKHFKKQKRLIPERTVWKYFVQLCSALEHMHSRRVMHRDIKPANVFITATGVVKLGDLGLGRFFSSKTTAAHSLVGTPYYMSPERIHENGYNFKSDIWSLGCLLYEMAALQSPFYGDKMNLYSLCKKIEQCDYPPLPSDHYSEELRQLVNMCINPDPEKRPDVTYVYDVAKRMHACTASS
CDKL1, sequence (Q00532 whole entry): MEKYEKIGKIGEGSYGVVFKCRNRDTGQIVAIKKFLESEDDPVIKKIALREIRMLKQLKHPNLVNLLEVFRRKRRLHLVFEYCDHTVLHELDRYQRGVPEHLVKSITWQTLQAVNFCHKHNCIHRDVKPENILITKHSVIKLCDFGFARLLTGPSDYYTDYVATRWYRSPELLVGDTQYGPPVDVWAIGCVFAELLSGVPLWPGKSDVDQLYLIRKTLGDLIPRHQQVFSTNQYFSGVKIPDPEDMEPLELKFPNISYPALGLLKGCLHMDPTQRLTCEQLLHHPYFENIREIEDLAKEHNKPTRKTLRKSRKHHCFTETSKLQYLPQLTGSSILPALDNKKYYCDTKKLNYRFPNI
CaMK1g, sequence (Q96NX5 whole entry): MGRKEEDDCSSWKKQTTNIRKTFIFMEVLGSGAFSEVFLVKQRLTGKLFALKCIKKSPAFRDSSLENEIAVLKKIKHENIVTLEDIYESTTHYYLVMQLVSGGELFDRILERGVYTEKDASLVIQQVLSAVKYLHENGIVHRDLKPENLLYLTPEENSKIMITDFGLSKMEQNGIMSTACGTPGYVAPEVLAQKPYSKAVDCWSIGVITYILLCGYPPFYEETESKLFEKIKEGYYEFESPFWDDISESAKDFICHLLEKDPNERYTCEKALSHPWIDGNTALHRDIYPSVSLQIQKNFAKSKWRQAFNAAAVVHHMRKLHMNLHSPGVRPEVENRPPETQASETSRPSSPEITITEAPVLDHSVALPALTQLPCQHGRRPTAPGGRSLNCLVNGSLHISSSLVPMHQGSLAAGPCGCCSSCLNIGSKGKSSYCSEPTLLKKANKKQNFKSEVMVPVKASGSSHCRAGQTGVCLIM
BIKE, sequence (Q9NSY1 whole entry): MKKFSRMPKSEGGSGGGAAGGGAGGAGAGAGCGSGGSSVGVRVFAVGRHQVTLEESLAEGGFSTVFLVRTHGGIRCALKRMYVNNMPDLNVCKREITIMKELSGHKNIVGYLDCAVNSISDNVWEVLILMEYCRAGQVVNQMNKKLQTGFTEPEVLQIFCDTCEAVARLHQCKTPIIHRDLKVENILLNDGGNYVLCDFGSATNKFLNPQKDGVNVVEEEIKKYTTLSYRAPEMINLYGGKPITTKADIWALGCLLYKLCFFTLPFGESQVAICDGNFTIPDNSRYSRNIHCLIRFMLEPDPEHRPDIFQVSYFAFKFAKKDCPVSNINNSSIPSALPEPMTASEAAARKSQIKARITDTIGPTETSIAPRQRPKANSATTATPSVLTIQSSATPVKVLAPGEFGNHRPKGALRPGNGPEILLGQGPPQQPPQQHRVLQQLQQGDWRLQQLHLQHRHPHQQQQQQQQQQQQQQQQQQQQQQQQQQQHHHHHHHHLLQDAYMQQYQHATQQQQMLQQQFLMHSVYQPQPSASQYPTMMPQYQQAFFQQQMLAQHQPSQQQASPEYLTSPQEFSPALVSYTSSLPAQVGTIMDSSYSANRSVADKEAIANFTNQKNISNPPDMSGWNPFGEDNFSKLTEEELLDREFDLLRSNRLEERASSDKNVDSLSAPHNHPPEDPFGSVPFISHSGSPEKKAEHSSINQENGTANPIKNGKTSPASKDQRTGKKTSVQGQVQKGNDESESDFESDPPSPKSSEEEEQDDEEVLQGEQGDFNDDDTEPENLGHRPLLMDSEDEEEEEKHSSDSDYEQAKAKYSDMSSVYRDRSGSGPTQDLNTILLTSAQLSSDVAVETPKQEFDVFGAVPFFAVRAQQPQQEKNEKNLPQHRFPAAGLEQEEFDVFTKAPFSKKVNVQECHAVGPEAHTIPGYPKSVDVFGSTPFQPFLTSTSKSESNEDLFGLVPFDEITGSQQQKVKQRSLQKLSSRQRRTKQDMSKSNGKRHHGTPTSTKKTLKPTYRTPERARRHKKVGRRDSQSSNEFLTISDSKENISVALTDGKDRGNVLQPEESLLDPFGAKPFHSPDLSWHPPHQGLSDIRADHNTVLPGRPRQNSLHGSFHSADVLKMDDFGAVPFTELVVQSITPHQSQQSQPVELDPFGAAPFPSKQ

Take `CNc1ncc2cc(-c3cc(Cl)ccc3Cl)c(=O)n(CCCCN)c2n1` [compound 8, 8-(4-Aminobutyl)-6-(2,5-dichlorophenyl)-2-(methylamino)pyrido[2,3-d]pyrimidin-7(8H)-one]: the ΔTm at 10 µM at AurA (read-out: dTm 8) is 1.9 °C; on CaMK1g (read-out: dTm 8) it was 1.1 °C; on MARK4 (read-out: dTm 8), 1 °C; on MAP3K5 (read-out: dTm 8) it was 1.5 °C; on BIKE (read-out: dTm 8), 1.1 °C; on CDKL1 (read-out: dTm 8), 0.2 °C. Also, the ΔTm at 10 µM on NEK7 (read-out: dTm 8) was -0.2 °C.

Turning to `CNc1ncc2cc(-c3cc(Cl)ccc3Br)c(=O)n(CCCCN)c2n1` [compound 10, 8-(4-Aminobutyl)-6-(2-bromo-5-chlorophenyl)-2-(methylamino)pyrido[2,3-d]pyrimidin-7(8H)-one], the ΔTm at 10 µM at AurA (read-out: dTm 10) was determined as 2 °C; at CaMK1g (read-out: dTm 10) it was 0.7 °C; on MARK4 (read-out: dTm 10), 1.7 °C; at MAP3K5 (read-out: dTm 10), 1.7 °C; at BIKE (read-out: dTm 10), 1.1 °C; at CDKL1 (read-out: dTm 10), 0.3 °C. The ΔTm at 10 µM on NEK7 (read-out: dTm 10) was -0.5 °C.

Take `CNc1ncc2cc(-c3cc(Br)ccc3Br)c(=O)n(CCCCN)c2n1` [compound 11, 8-(4-Aminobutyl)-6-(2,5-dibromophenyl)-2-(methylamino)pyrido[2,3-d]pyrimidin-7(8H)-one]: the ΔTm at 10 µM on AurA (read-out: dTm 11) came to 1.9 °C; at CaMK1g (read-out: dTm 11), 0.8 °C; at MARK4 (read-out: dTm 11), 1.8 °C; at MAP3K5 (read-out: dTm 11) it was 1.6 °C; on BIKE (read-out: dTm 11) it was 1 °C; on CDKL1 (read-out: dTm 11) it was 0.4 °C. Further, on NEK7 (read-out: dTm 11), the ΔTm at 10 µM is -0.2 °C.

On to `CNc1ncc2cc(-c3cc(C(F)(F)F)ccc3Cl)c(=O)n(CCCCN)c2n1` [compound 9, 8-(4-Aminobutyl)-6-(2-chloro-5-(trifluoromethyl)phenyl)-2-(methylamino)pyrido[2,3-d]pyrimidin-7(8H)-one], for which the ΔTm at 10 µM at AurA (read-out: dTm 9) amounted to 1.3 °C; on CaMK1g (read-out: dTm 9), 0.6 °C; at MARK4 (read-out: dTm 9) it was 0 °C; at MAP3K5 (read-out: dTm 9) it was 0.4 °C; at BIKE (read-out: dTm 9) it was 0.6 °C; at CDKL1 (read-out: dTm 9), 0 °C. Moreover, the ΔTm at 10 µM on NEK7 (read-out: dTm 9) is 0.4 °C.

On to `CNc1ncc2cc(-c3cc(F)c(-c4cccc(C)n4)cc3F)c(=O)n(CCCCN)c2n1` [compound 12, 8-(4-Aminobutyl)-6-(2,5-difluoro-4-(6-methylpyridin-2-yl)phenyl)-2-(methylamino)pyrido[2,3-d]pyrimidin-7(8H)-one], for which the ΔTm at 10 µM on AurA (read-out: dTm 12) was -2.4 °C; on CaMK1g (read-out: dTm 12), 3.4 °C; at MARK4 (read-out: dTm 12) it was 4.5 °C; at MAP3K5 (read-out: dTm 12), 9.1 °C; at BIKE (read-out: dTm 12), 2.2 °C; at CDKL1 (read-out: dTm 12), 0.2 °C. For the same compound, the ΔTm at 10 µM on NEK7 (read-out: dTm 12) was -2.1 °C.
